SMILES strings stand for the structures. pIC50: −log10 of the molar value.

From patent US20260374756A1, “HETEROCYCLIC COMPOUNDS AS INHIBITORS OF MONOACYLGLYCEROL LIPASE (MAGL)” (Hoffmann-La Roche Inc., priority 2022, published 2026) come the findings set out here.

The test concerns the target T1, hMAGL (Homo sapiens, UniProt Q99685).
T1 sequence (Q99685 1-303): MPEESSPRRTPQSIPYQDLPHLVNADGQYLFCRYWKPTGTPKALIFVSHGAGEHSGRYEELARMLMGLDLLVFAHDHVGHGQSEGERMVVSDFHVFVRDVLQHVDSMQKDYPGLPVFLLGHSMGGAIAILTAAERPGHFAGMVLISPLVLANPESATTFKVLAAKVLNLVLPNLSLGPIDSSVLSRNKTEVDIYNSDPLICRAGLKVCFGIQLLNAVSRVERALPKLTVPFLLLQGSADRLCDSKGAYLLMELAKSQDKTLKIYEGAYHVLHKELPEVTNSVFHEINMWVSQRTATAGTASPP
The test is described as follows: 2-AG assay: MAGL inhibition, hydrolysis of 2-arachidonoylglycerol to arachidonic acid followed by mass spectrometry. Format: biochemical. The method, boiled down:
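MAGL preincubated with compound 15 min at RT in 50 mM Tris, 1 mM EDTA, 0.01% Tween-20, 2.5% DMSO; reaction started with 8 μM 2-AG (final), […], 30 min at RT. Quenched with acetonitrile containing d8-arachidonic acid; arachidonic acid quantified by RapidFire SPE-triple quad MS as arachidonic acid/d8 ratio.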
The pIC50 is the IC50 on a negative log10 scale, so that one unit is a factor of ten. The compound `O=C(N1CC2(CCC(Cc3nnc(C(F)(F)F)[nH]3)CC2)C1)N1CC2(CC(n3cnc(C4(O)CC4)n3)C2)C1` [Example 35, [6-[3-(1-hydroxycyclopropyl)-1,2,4-triazol-1-yl]-2-azaspiro[3.3]heptan-2-yl]-[7-[[5-(trifluoromethyl)-4H-1,2,4-triazol-3-yl]methyl]-2-azaspiro[3.5]nonan-2-yl]methanone] showed a pIC50 of 6.94.

For the compound `O=C(N1CC2(CC(Cn3ncc(C(F)(F)F)n3)C2)C1)N1CC2(CC(n3cnc(C4(O)CC4)n3)C2)C1` [Example 292, [6-[3-(1-hydroxycyclopropyl)-1,2,4-triazol-1-yl]-2-azaspiro[3.3]heptan-2-yl]-[6-[[4-(trifluoromethyl)triazol-2-yl]methyl]-2-azaspiro[3.3]heptan-2-yl]methanone], the pIC50 was 8.37.

With `O=C(N1CC2(CC(n3cnc(C4CC4)n3)C2)C1)N1CC2(CN(Cc3cc(C4CC4)n[nH]3)C2)C1` [Example 283, [6-[(3-cyclopropyl-1H-pyrazol-5-yl)methyl]-2,6-diazaspiro[3.3]heptan-2-yl]-[6-(3-cyclopropyl-1,2,4-triazol-1-yl)-2-azaspiro[3.3]heptan-2-yl]methanone], the pIC50 was 8.10.

Turning to `O=C(N1CC2(CC(n3cnc(C(F)(F)F)n3)C2)C1)N1CC2(CN(Cc3cnn(CC(F)(F)F)n3)C2)C1` [Example 195, [6-[[2-(2,2,2-trifluoroethyl)triazol-4-yl]methyl]-2,6-diazaspiro[3.3]heptan-2-yl]-[6-[3-(trifluoromethyl)-1,2,4-triazol-1-yl]-2-azaspiro[3.3]heptan-2-yl]methanone], the pIC50 was 6.36.

The compound `O=C(N1CC2(CC(n3cnc(C(F)(F)F)n3)C2)C1)N1CC2(CN(Cc3ccnn3CC(F)(F)F)C2)C1` [Example 222] gave a pIC50 of 6.69.

As to `Cn1ncc(C(F)(F)F)c1CC1CC2(C1)CN(C(=O)N1CC3(CC(n4cnc(C5(O)CC5)n4)C3)C1)C2` [Example 3], the pIC50 was 8.66.

`O=C(N1CC2(CC(Cn3cnc(C(F)(F)F)c3)C2)C1)N1CC2(CC(n3cnc(C4CC4)n3)C2)C1` [Example 40, [6-(3-cyclopropyl-1,2,4-triazol-1-yl)-2-azaspiro[3.3]heptan-2-yl]-[6-[[4-(trifluoromethyl)imidazol-1-yl]methyl]-2-azaspiro[3.3]heptan-2-yl]methanone] gave a negative logarithm of the IC50 (pIC50) of 8.38.

Compound `Cn1nc(C(F)(F)F)cc1CN1CCC2(CC1)CN(C(=O)N1CC3(CC(n4cnc(C5(O)CC5)n4)C3)C1)C2` [Example 27, [6-[3-(1-hydroxycyclopropyl)-1,2,4-triazol-1-yl]-2-azaspiro[3.3]heptan-2-yl]-[7-[[2-methyl-5-(trifluoromethyl)pyrazol-3-yl]methyl]-2,7-diazaspiro[3.5]nonan-2-yl]methanone] gave a negative logarithm of the IC50 (pIC50) of 6.91.

Consider `O=C(N1CC2(CC(Cc3cnn(CC(F)(F)F)c3)C2)C1)N1CC2(CC(n3cnc(C4(O)CC4)n3)C2)C1` [Example 291, [6-[3-(1-hydroxycyclopropyl)-1,2,4-triazol-1-yl]-2-azaspiro[3.3]heptan-2-yl]-[6-[[1-(2,2,2-trifluoroethyl)pyrazol-4-yl]methyl]-2-azaspiro[3.3]heptan-2-yl]methanone], for which the negative logarithm of the IC50 (pIC50) is 7.97.

`O=C(N1CC2(CCN(Cc3cc(C(F)(F)F)no3)CC2)C1)N1CC2(CC(n3cnc(C4(O)CC4)n3)C2)C1` [Example 18, [6-[3-(1-hydroxycyclopropyl)-1,2,4-triazol-1-yl]-2-azaspiro[3.3]heptan-2-yl]-[7-[[3-(trifluoromethyl)isoxazol-5-yl]methyl]-2,7-diazaspiro[3.5]nonan-2-yl]methanone]: the pIC50 is 6.48.

The compound `Cn1ncc(C(F)(F)F)c1CN1CC2(C1)CN(C(=O)N1CC3(CC(c4cc(C5CC5)n[nH]4)C3)C1)C2` [Example 157, [6-(3-cyclopropyl-1H-pyrazol-5-yl)-2-azaspiro[3.3]heptan-2-yl]-[6-[[2-methyl-4-(trifluoromethyl)pyrazol-3-yl]methyl]-2,6-diazaspiro[3.3]heptan-2-yl]methanone] had a negative logarithm of the IC50 (pIC50) of 9.20.

`Cc1cc(C2CC2)nn1CC1CC2(C1)CN(C(=O)N1CC3(CC(n4cnc(C5CC5)n4)C3)C1)C2` [Example 135, [6-[(3-cyclopropyl-5-methyl-pyrazol-1-yl)methyl]-2-azaspiro[3.3]heptan-2-yl]-[6-(3-cyclopropyl-1,2,4-triazol-1-yl)-2-azaspiro[3.3]heptan-2-yl]methanone] showed a pIC50 of 9.64.

Consider `N=S(=O)(c1cnn(CC2CC3(C2)CN(C(=O)N2CC4(CC(n5cnc(C6CC6)n5)C4)C2)C3)c1)C(F)(F)F` (centres unmarked) [Example 349, [6-(3-cyclopropyl-1,2,4-triazol-1-yl)-2-azaspiro[3.3]heptan-2-yl]-[6-[[4-(trifluoromethylsulfonimidoyl)pyrazol-1-yl]methyl]-2-azaspiro[3.3]heptan-2-yl]methanone], for which the pIC50 is 8.99.

In turn, `Cn1nc(C(F)(F)F)cc1CN1CCC2(CC1)CN(C(=O)N1CC3(CC(c4cc(C5CC5)n[nH]4)C3)C1)C2` [Example 24] had a pIC50 of 8.19.

The compound `Cn1cc(OC2CC3(C2)CN(C(=O)N2CC4(CC(n5cnc(C6(O)CC6)n5)C4)C2)C3)cn1` [Example 88, [6-[3-(1-hydroxycyclopropyl)-1,2,4-triazol-1-yl]-2-azaspiro[3.3]heptan-2-yl]-[6-(1-methylpyrazol-4-yl)oxy-2-azaspiro[3.3]heptan-2-yl]methanone] had a pIC50 of 5.86.

`O=C(N1CC2(CC(n3cnc(C(F)(F)F)n3)C2)C1)N1CC2(CN(Cc3cnn(C(F)F)c3)C2)C1` [Example 262, [6-[[1-(difluoromethyl)pyrazol-4-yl]methyl]-2,6-diazaspiro[3.3]heptan-2-yl]-[6-[3-(trifluoromethyl)-1,2,4-triazol-1-yl]-2-azaspiro[3.3]heptan-2-yl]methanone] showed a pIC50 of 6.27.

Regarding `Cn1cnc(CN2CC3(C2)CN(C(=O)N2CC4(CC(n5cnc(C6CC6)n5)C4)C2)C3)c1` [Example 305, [6-(3-cyclopropyl-1,2,4-triazol-1-yl)-2-azaspiro[3.3]heptan-2-yl]-[6-[(1-methylimidazol-4-yl)methyl]-2,6-diazaspiro[3.3]heptan-2-yl]methanone], the negative logarithm of the IC50 (pIC50) is 5.54.

The compound `O=C(N1CC2(CC(n3cnc(C(F)(F)F)n3)C2)C1)N1CC2(CN(Cc3ccn(CC(F)(F)F)n3)C2)C1` [Example 99, [6-[[1-(2,2,2-trifluoroethyl)pyrazol-3-yl]methyl]-2,6-diazaspiro[3.3]heptan-2-yl]-[6-[3-(trifluoromethyl)-1,2,4-triazol-1-yl]-2-azaspiro[3.3]heptan-2-yl]methanone] gave a pIC50 of 6.41.

For the compound `Cc1cc(C(F)F)nn1CC1CC2(C1)CN(C(=O)N1CC3(CC(n4cnc(C5CC5)n4)C3)C1)C2` [Example 95, [6-(3-cyclopropyl-1,2,4-triazol-1-yl)-2-azaspiro[3.3]heptan-2-yl]-[6-[[3-(difluoromethyl)-5-methyl-pyrazol-1-yl]methyl]-2-azaspiro[3.3]heptan-2-yl]methanone], the negative-log IC50 (pIC50) is 9.70.

Compound `Cn1ncc(C(F)(F)F)c1CN1CCC2(CC1)CN(C(=O)N1CC3(CC(n4cnc(C5(O)CC5)n4)C3)C1)C2` [Example 67, [6-[3-(1-hydroxycyclopropyl)-1,2,4-triazol-1-yl]-2-azaspiro[3.3]heptan-2-yl]-[7-[[2-methyl-4-(trifluoromethyl)pyrazol-3-yl]methyl]-2,7-diazaspiro[3.5]nonan-2-yl]methanone] gave a pIC50 of 8.67.

`O=C(N1CC2(CC(Cn3cnc(C(F)(F)F)n3)C2)C1)N1CC2(CC(c3cc(C4CC4)n[nH]3)C2)C1` [Example 126, [6-(3-cyclopropyl-1H-pyrazol-5-yl)-2-azaspiro[3.3]heptan-2-yl]-[6-[[3-(trifluoromethyl)-1,2,4-triazol-1-yl]methyl]-2-azaspiro[3.3]heptan-2-yl]methanone] had a pIC50 of 9.11.

`O=C(N1CC2(CC(n3cnc(C(F)(F)F)n3)C2)C1)N1CC2(CN(Cc3nc(C(F)(F)F)no3)C2)C1` [Example 172, [6-[[3-(trifluoromethyl)-1,2,4-oxadiazol-5-yl]methyl]-2,6-diazaspiro[3.3]heptan-2-yl]-[6-[3-(trifluoromethyl)-1,2,4-triazol-1-yl]-2-azaspiro[3.3]heptan-2-yl]methanone] gave a pIC50 of 7.26.

With `Cn1nc(C2CC2)cc1CN1CC2(C1)CN(C(=O)N1CC3(CC(n4cnc(C(F)(F)F)n4)C3)C1)C2` [Example 271], the pIC50 is 7.83.

Consider `Cc1sc(CN2CC3(C2)CN(C(=O)N2CC4(CC(n5cnc(C(F)(F)F)n5)C4)C2)C3)nc1C(F)(F)F` [Example 54, [6-[[5-methyl-4-(trifluoromethyl)thiazol-2-yl]methyl]-2,6-diazaspiro[3.3]heptan-2-yl]-[6-[3-(trifluoromethyl)-1,2,4-triazol-1-yl]-2-azaspiro[3.3]heptan-2-yl]methanone], for which the negative logarithm of the IC50 (pIC50) is 7.07.

In turn, `O=C(N1CC2(CC(Cc3cc(C(F)(F)F)n[nH]3)C2)C1)N1CC2(CC(n3cnc(C4CC4)n3)C2)C1` [Example 300, [6-(3-cyclopropyl-1,2,4-triazol-1-yl)-2-azaspiro[3.3]heptan-2-yl]-[6-[[3-(trifluoromethyl)-1H-pyrazol-5-yl]methyl]-2-azaspiro[3.3]heptan-2-yl]methanone] showed a negative logarithm of the IC50 (pIC50) of 9.92.

As for `O=C(N1CC2(CC(Cc3ncn(CC(F)(F)F)n3)C2)C1)N1CC2(CC(n3cnc(C(F)(F)F)n3)C2)C1` [Example 331, [6-[[1-(2,2,2-trifluoroethyl)-1,2,4-triazol-3-yl]methyl]-2-azaspiro[3.3]heptan-2-yl]-[6-[3-(trifluoromethyl)-1,2,4-triazol-1-yl]-2-azaspiro[3.3]heptan-2-yl]methanone], the negative logarithm of the IC50 (pIC50) is 7.93.
